Activity calls are given as the source filed them.
Tests used:
[1] = target: Fructose-bisphosphate aldolase (Mycobacterium tuberculosis, UniProt P9WQA3); assay: Fluorescence-based biochemical high throughput dose response assay for inhibitors of the fructose-bisphosphate aldolase (FBA) of M. tuberculosis.; type: functional
[2] = human group III sPLA2 inhibitors, dose response, biochemical, QFRET, IC50 (AID 743457);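 further: green fluorescence rise as the enzyme cleaves BODIPY PC-A2 in liposomes; potency for inhibition of the enzyme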
[3] = ARNT/TACC3 interaction disruptors, potency, confirmation, biochemical, AlphaScreen, cherry-picked samples (AID 651703); type: functional, Homo sapiens;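 further: His-tagged ARNT PAS-B domain paired with GST-TACC3 E629A dimer coactivator fragment; potency of inhibitors that break up the complex and lower AlphaScreen signal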
[4] = target: T1, Low molecular weight phosphotyrosine protein phosphatase (Homo sapiens, UniProt P24666); type: functional; conditions: read-out: IC50_Mean
T1 sequence (P24666 whole entry): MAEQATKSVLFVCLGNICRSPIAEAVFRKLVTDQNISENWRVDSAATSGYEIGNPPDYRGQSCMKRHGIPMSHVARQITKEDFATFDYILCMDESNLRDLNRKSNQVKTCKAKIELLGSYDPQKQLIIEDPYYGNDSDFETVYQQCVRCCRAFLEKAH

[5] = target: T1, Low molecular weight phosphotyrosine protein phosphatase; type: functional; conditions: read-out: IC50_Mean; remark: listed apart in the source
cells = type: functional, cell-based
[6] = A549 cell cytotoxicity, dose response, cytotoxicity control, plate reader, cherry-pick, antagonist series (AID 743412); type: functional, cell-based
[7] = target: T2, Nuclear receptor subfamily 0 group B member 1 (Homo sapiens, UniProt P51843); type: functional, cell-based;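 further: HEK293T cells transfected with SF-1 and DAX-1 plus StAR promoter luciferase reporter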
T2 sequence (P51843 whole entry): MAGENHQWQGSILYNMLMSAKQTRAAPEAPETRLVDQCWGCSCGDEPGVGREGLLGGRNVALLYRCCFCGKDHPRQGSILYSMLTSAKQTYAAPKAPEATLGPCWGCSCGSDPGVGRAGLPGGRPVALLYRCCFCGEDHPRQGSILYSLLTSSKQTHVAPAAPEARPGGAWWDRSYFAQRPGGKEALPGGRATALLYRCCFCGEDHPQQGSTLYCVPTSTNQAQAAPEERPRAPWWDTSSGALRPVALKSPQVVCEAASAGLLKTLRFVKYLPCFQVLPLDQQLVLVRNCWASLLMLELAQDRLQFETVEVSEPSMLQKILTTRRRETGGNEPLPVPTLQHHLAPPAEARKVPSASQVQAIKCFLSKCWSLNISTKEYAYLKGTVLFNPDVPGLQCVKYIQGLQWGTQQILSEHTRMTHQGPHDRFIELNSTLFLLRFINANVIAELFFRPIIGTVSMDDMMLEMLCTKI

[8] = LGR2 antagonists, dose response, cell-based, HEK293, CRE-luciferase reporter, cherry pick, set 2 (AID 743343); type: functional;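 further: transfected cells were stimulated with diluted bursicon conditioned medium after compound addition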
[9] = MC4R antagonists, dose response, counter-screen for LGR2 antagonist project, cell-based, plate reader, cherry pick (AID 743444); type: functional;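 further: transfected HEK 293 cells stimulated with alpha-MSH peptide; potency of inhibitors of the alpha-MSH evoked signal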
Vero = assay: Vero cell toxicity, dose response, cytotoxicity control, plate reader, cherry-pick samples (AID 687020); type: functional, cell-based; conditions: Chlorocebus sabaeus
[10] = target: T3, Rac GTPase-activating protein 1 (Homo sapiens, UniProt Q9H0H5); assay: MgcRacGAP GTPase-activating activity inhibitors, confirmation, biochemical, ADP Hunter fluorescence, primary and confirmatory (AID 624330); type: functional
T3 sequence (Q9H0H5 whole entry): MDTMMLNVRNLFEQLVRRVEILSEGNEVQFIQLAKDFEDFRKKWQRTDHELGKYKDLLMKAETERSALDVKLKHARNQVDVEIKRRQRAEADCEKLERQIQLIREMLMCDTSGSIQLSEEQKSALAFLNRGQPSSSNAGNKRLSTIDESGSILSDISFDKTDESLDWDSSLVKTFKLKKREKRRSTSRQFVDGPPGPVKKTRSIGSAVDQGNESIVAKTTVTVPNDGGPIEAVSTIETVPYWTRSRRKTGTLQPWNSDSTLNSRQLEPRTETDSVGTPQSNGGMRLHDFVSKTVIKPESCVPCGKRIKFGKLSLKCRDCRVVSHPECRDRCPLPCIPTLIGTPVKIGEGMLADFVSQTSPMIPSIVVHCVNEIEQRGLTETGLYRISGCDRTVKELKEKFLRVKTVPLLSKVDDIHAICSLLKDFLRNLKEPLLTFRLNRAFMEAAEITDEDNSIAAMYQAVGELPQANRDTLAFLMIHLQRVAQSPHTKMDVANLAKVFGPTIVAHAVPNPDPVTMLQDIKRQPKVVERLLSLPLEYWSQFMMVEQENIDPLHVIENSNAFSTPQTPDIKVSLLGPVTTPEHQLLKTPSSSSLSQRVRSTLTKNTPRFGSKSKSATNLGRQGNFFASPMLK

[11] = HeLa cell cytotoxicity, dose response, cytotoxicity control for MgcRacGAP inhibitor project (AID 624300); type: functional
[12] = target: Histone-lysine N-methyltransferase NSD2 (Homo sapiens, UniProt O96028); type: biochemical
Histone-lysine N-methyltransferase NSD2, sequence (O96028 whole entry): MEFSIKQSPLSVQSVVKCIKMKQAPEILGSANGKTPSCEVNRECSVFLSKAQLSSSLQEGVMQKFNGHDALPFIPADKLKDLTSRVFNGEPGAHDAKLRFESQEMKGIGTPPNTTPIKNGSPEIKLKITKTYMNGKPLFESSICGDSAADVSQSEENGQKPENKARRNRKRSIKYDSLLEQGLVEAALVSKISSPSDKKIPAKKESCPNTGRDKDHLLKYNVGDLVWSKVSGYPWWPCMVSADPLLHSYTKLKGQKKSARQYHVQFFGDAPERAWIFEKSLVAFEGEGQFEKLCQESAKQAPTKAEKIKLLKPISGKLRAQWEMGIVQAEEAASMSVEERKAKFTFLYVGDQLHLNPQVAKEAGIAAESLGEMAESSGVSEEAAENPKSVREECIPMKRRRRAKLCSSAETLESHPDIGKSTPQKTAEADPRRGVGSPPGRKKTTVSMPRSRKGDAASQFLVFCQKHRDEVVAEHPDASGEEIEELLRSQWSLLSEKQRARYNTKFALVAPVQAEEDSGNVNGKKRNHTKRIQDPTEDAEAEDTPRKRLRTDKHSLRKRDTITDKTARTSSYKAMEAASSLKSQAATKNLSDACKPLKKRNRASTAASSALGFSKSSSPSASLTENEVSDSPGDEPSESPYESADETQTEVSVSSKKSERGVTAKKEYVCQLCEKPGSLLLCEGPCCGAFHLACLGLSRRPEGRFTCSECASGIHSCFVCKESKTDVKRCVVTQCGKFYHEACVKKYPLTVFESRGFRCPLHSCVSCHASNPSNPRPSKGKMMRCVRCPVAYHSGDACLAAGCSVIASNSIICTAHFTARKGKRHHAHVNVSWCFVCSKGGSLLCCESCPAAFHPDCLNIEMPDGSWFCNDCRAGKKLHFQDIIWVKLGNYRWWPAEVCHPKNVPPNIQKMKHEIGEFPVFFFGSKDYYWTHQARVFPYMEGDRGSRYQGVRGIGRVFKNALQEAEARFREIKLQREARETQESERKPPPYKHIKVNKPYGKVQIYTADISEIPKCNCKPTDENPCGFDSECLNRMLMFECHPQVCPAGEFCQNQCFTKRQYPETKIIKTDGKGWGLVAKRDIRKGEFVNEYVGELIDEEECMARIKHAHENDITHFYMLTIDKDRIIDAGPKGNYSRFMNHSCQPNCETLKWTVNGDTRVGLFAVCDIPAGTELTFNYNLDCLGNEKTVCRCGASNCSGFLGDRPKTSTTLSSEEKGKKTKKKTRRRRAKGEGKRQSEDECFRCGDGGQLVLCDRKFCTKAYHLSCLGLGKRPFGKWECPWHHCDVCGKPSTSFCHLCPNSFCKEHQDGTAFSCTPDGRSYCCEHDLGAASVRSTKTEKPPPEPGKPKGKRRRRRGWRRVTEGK

Fructose-bisphosphate aldolase, sequence (P9WQA3 whole entry): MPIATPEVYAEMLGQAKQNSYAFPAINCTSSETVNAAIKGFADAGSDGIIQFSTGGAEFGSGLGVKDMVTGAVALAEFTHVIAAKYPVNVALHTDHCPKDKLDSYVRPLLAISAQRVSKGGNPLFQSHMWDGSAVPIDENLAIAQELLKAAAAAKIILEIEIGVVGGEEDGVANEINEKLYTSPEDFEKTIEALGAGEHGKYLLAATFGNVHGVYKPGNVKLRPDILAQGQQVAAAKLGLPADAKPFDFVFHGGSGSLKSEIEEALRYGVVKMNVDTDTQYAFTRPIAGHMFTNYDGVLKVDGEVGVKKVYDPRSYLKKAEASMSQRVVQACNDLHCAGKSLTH

With `COc1cc2c(cc1OC)C(C1C(=O)CC(C)CC1=O)N(C(=O)CCl)CC2` (stereo not given) the IC50 [1] was > 9.99 µM (inactive).
In the case of `Sc1nnc(-c2ccc(Cl)cc2)n1-c1ccc2c(c1)OCCO2`, the IC50 [2] was > 122 µM (inactive).
With `O=C(CCN1C(=O)c2cccnc2C1=O)NC1CCCCCC1` the AC50 [3] was 76.9 µM (active).
For `O=C(CSc1nc(-c2ccccc2)nc2ccc(F)cc12)Nc1ccc(C(=O)O)cc1`, the IC50 [4] was 25.9 µM (inactive) and the IC50 [5] was 57.3 µM (inactive).
For `COc1ccc(-c2cn3cc(C)ccc3n2)cc1F`, the IC50 (cells) was > 67.6 µM (inactive), the AC50 [6] was 30.9 µM (active) and the IC50 [7] was > 67.6 µM (inactive). The AC50 [8] was 3 µM (active) and the AC50 [9] was 2.87 µM (active).
In the case of `CN(CC(=O)Nc1cccc(F)c1)C(=O)c1ccccc1CCc1ccccc1`, the AC50 (Vero) was 15.3 µM (active).
For `CC(=O)Nc1cccc(NC(=O)c2cccc(-c3ccc(O)cc3)c2)c1`, the IC50 [10] was 46.4 µM (active) and the CC50 [11] was 100 µM (active).
In the case of `COc1c(Cl)cc(Br)c(OC)c1C(=O)NC(=O)Nc1nc(C)cc(C)n1`, the AC50 (Vero) was 29.2 µM (active).
In the case of `COCC(C)OC(=O)/C(C#N)=C\c1coc2ccc(C)cc2c1=O` (stereo not given), the AC50 [12] was 11.9 µM (active).

From ChEMBL document CHEMBL1201862, “PubChem BioAssay data set” (2004)
